ChEMBL document CHEMBL3808359, “Conformational analysis of 2-substituted piperazines” (Bioorg Med Chem Lett, 2016)

Target: Neuronal acetylcholine receptor subunit alpha-7 (Homo sapiens, UniProt P36544)
Assay: Agonist activity at alpha7 nAChR (unknown origin)

Sequence of Neuronal acetylcholine receptor subunit alpha-7 (P36544 whole entry): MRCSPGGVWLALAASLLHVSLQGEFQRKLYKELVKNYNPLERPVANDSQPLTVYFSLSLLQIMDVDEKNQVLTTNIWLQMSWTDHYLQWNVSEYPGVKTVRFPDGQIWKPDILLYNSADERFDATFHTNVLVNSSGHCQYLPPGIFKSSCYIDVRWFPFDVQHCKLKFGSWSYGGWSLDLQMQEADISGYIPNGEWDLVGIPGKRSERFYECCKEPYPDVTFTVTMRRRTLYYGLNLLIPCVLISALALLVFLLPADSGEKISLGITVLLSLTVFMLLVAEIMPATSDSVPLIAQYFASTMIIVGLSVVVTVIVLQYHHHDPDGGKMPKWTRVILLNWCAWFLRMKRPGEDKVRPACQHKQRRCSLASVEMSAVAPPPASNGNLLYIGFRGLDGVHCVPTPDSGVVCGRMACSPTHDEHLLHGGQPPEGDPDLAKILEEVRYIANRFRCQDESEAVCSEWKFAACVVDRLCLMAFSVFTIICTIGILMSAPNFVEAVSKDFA

IC50 [µM] | SMILES
> 5 | COc1ccc(NC(=O)N2CCNCC2CCc2cccnc2)cc1 (stereo not given)
0.006 | c1cncc(OC[C@H]2CNCCN2c2nc3ncccc3o2)c1
0.011 | COc1ccc(NC(=O)N2CCNCC2COc2cccnc2)cc1 (stereo not given)
0.019 | COc1ccc(NC(=O)N2CCNC[C@@H]2COc2cccnc2)cc1

SMILES | IC50 [µM]
COc1ccc(OC(=O)N2CCNCC2CCc2cccnc2)cc1 (stereo not given) | > 5
